Laboratory results taken from US20190161516A1, “PROTEASOME INHIBITORS” (University of Kentucky Research Foundation, priority 2017, published 2019).

Legend:
[1] = tested on: Chymotrypsin-like activity (β5/β5i); assay: Proteasome inhibitory activity, subunit-specific cell lysate IC50, chymotrypsin-like activity; type: biochemical
[2] = molecular target: T1, LMP7/β5i (Homo sapiens, UniProt P20618+P28062); assay: Proteasome activity assay, purified 20S proteasome, Ac-ANW-AMC; type: biochemical
T1 construct: purchased R&D Systems
Method: Purified 20S human proteasomes (CP and IP, R&D Systems) were used to assess the in vitro inhibition of proteasome catalytic activity by LMP2 inhibitors. […] Reactions were initiated by the addition of fluorogenic substrates containing the AMC (7-amino-4-methylcoumarin) group. Specifically, the following substrates were used: Suc-LLVY-AMC (CT-L activity, 100 μM), Ac-PAL-AMC (LMP2, 100 μM), Ac-WLA-AMC (β5, 20 μM), Ac-nLPnLD-AMC (β1,100 μM), Ac-RLR-AMC (β2/2i, 20 μM), and Ac-ANW-AMC (β5i, 100 μM). The fluorescence of liberated AMC was measured over a period of 90 min at 360 and 460 nm on a SpectraMax M5 fluorescence plate reader (Molecular Devices). For the proteasome activity of brain tissues isolated from AD mice, tissues were homogenized in RIPA buffer (50 mM Tris Cl, pH 7.4, 150 mM NaCl, 5 mM EDTA, 1% Nonidet P-40, 1% sodium deoxycholate, 0.1% SDS, 1% aprotinin, 50 mM NaF) and sonicated. Samples were centrifuged for 40 min at 14,000×g (4° C.). Protein concentration was determined using the Bradford Assay according to the manufacturer's protocol. Finally, samples were loaded onto a 96-well plate followed by the addition of the substrate (Ac-PAL-AMC) at 37° C. Fluorescence was recorded for 90 min using a Synergy-HT (Bio Tek) plate reader.

[3] = tested on: neuronal tissues from the brains of APPsw mice; assay: Cresyl violet staining of neuronal tissues; type: in vivo; conditions: APPsw mouse model, FIG. 10
Excerpt: Since LMP2 inhibitors had no effects on Aβ or tau aggregation, we wondered if these compounds are simply protecting neurons from cell death caused by Aβ or LPS. To examine this, we performed Cresyl violet staining experiments on neuronal tissues isolated from the brains of APPsw mice.
Frozen brain tissues were cut into 30 μm sections by using cryostat microtome (Leica CM1850; Leica Microsystems, Korea). The pieces of brain were thoroughly washed with PBS to remove the excess fixative agent, and then transferred to gelatin coated slices and stained with 0.1% Cresyl violet (2-5 minutes) to identify cortical layers and cytoarchitectural features of isocortical region. Next, the sections were washed with distill water and dehydrated by using ascending grades of ethanol (50%, 70%, 90%, and 100%) for 2 min in each grade followed by a 1-min immersion in a 1:1 mixture of absolute alcohol and xylene. The sections were then rinsed with xylene for 5-10 min and mounted with mounting medium (CYTOSEAL™ XYL; Thermo Scientific, USA). The tissue was photographed (100×) in the same areas.

[4] = tested on: reactive astrocytes and microglia; assay: Immunohistochemical analysis of hippocampal tissues (GFAP, Iba1); type: in vivo, mouse
Excerpt: Activation of neuroglia is closely linked to neuroinflammation, which is reported to be one of major factors involved in the development and progression of AD. Therefore, we set out to investigate whether LMP2 inhibitors could block the activation of astrocytes and microglia. We performed immunohistochemical analysis of hippocampal tissues isolated from the brains of both APPsw and LPS-induced mice, using GFAP and Iba1 as standard markers for reactive astrocytes and microglial, respectively.
Frozen tissues were cut into 30 μm thick sections and stored free floating in cryoprotectant solution (30% ethylenglycol, 20% glycerol, 50 mM sodium phosphate buffer, pH 7.4) at 4° C. until further use. For immunohistological staining, sections were rinsed in 1×PBS, incubated in blocking buffer (1×PBS containing 0.3% Triton X-100 and 10% normal goat serum) for 1 hr at room temperature and primary antibodies for GFAP (1:1000; Abcam) and Iba-1 (1:500; Abcam) were diluted in 1×PBS/0.3% triton X-100/5% normal goat serum and incubated over night at 4° C. […] Fluorescence imaging was performed using an Olympus XM10 monochrome fluorescence CCD camera (Olympus, Germany).

[5] = tested on: COX-2; assay: COX-2 expression by immunohistochemical analysis of hippocampal tissues; type: in vivo; conditions: hippocampal tissues from APPsw mouse, FIG. 11A right panel
Method: To directly verify the role of LMP2 in neuroinflammation pathways, we measured the expression of COX-2 by immunohistochemical analysis of hippocampal tissues from APPsw mouse.
Frozen tissues were cut into 30 μm thick sections and stored free floating in cryoprotectant solution (30% ethylenglycol, 20% glycerol, 50 mM sodium phosphate buffer, pH 7.4) at 4° C. until further use. For immunohistological staining, sections were rinsed in 1×PBS, incubated in blocking buffer (1×PBS containing 0.3% Triton X-100 and 10% normal goat serum) for 1 hr at room temperature and primary antibodies for GFAP (1:1000; Abcam) and Iba-1 (1:500; Abcam) were diluted in 1×PBS/0.3% triton X-100/5% normal goat serum and incubated over night at 4° C. Sections were washed with 1×PBS to wash off excessive primary antibodies, incubated with species specific peroxidase-coupled secondary antibodies (goat anti-mouse or goat anti-rabbit (1:300, Abcam)) diluted in 1×PBS/0.3% Triton X-100/5% normal goat serum and incubated for 1 h on a shaker at RT before developed with liquid diaminobezadine (DAB) (Dako, K3647). Sections were counterstained with matured hematoxylin, followed by dehydration in an ascending alcohol series before covered using Roti®-Histokitt II mounting medium. […] Fluorescence imaging was performed using an Olympus XM10 monochrome fluorescence CCD camera (Olympus, Germany).

In the case of CC(=O)NCC(=O)N1CCC[C@H]1C(=O)N[C@@H](Cc1ccccc1)C(=O)N[C@@H](CC(C)C)C(=O)[C@@]1(C)CO1 [YU102], the IC50 [1] is reported as greater than 10 µM, the IC50 [2] is reported as greater than 10 µM and the neuroprotective effects [3] is reported as “no neuroprotective effects”. For the same compound, the activation of astrocytes ([4]; GFAP, FIG. 11A) was “inhibits activation of astrocytes”, the activation of microglia ([4]; Iba1, FIG. 11B) was “inhibits activation of microglia” and the COX-2 upregulation [5] was “significantly curtails COX-2 upregulation”.
